Data as given in patent US7351546B2, “Flow cytometric, whole blood dendritic cell immune function assay” (Becton, Dickinson and Company, priority 1998, dated 2008).
Entries after “also recorded” stand apart in the source; their conditions may differ.

Tests used:
Assay type in all cases: cell-based, human
CD11c^+CD123^low DCs = settings: CD11c+ subset; whole blood; activator 4 hours at 37° C. with Brefeldin A
Method: (§1) Venous blood of normal donors was collected in sodium heparin […]® tubes. For activation with LPS, the blood was stimulated with 1 μg/mL LPS. […] PMA was then added at 5 ng/mL and ionomycin at 1 μg/mL. For activation by CD40 crosslinking, 50 μL CD40-coated polystyrene beads was added to 1 mL whole blood. All samples were incubated for four hours at 37° C. in a humidified incubator with 5% CO2.
(§2) For detection of intracellular cytokines, activation, as above, was performed in the presence additionally of Brefeldin A (BFA) at 10 μg/mL. Control (resting) aliquots were incubated with BFA alone.
(§3) Cell preparation was done at room temperature (RT), and all incubation steps were performed in the dark.
(§4) For staining, 1 mL of sample (activated or resting blood control) was added to a cocktail of dendritic cell-distinguishing antibodies (20 μL lineage cocktail 1-FITC, 10 μL HLA-DR PerCP, 5 μL CD11c APC; reagent volumes per 50 μL blood) in a 50 mL polypropylene centrifuge tube. The blood was incubated in the presence of the fluorophore-conjugated antibodies for 15 min. After incubation, 40 mL FACS® Lysing Solution was added and the tube incubated for a further 10 min. The cells were then collected by centrifugation for 10 min at 500×g, and the pellet gently broken off for further processing. Next, 10 mL FACS® Permeabilizing Solution was added and the cells were incubated for 10 min. […]

CD11c^−CD123^+ DCs = settings: CD11c−CD123+ subset; whole blood
Method: as §1, §2, §3, §4

CD11c^− DCs = settings: CD11c− subset; whole blood; activator 4 hours at 37° C. without Brefeldin A
Method: as §1
For detection of changes in surface antigen expression, samples were incubated with DC activator, as above, without the further addition of BFA. Control (resting) aliquots were incubated with neither BFA nor activator.
Cell preparation was done at room temperature (RT) and all incubation steps were performed in the dark.
For staining, 150 μL of sample (activated or resting blood control) was added to a cocktail of monoclonal antibodies in a staining tube.
After incubation, 3 mL of FACS® Lysing Solution was added and the tube incubated for 10 min at RT. The lysed cells were centrifuged for 5 min at 500×g and subsequently washed with 3 mL buffer (DPBS 1×, 0.5% fetal calf serum). The cell pellet was resuspended in 250 μL buffer and immediately acquired on a flow cytometer. If data acquisition was delayed, the cells were maintained at 4° C. for up to one hour.
The samples as described above were acquired on a FACSCalibur™ dual laser flow cytometer (BDIS, San Jose, Calif.). […]

CD11c^+ DCs = assay: Cytokine kinetic assay in LPS activated CD11c+ DCs; settings: 1 μg/ml LPS, time course 0 to 8 hours
Method: The time course of LPS incubation was 0 to 8 hours. Intracellular cytokine and CD80 expression is measured as PE mean fluorescence intensity (MFI).
Whole blood was stimulated with 1 μg/ml LPS and incubated in polypropylene tubes (12×75 mm) at 37° C. in a humidified atmosphere containing 5% CO2. Aliquots were processed, essentially as set forth in Examples 1 and 2 above, every hour from 0 to 8 hrs post stimulation. One hour prior to each sample harvest, BFA was added at 10 μg/mL.

monocytes = settings: activated whole blood with BFA
Method: The cytokine expression of monocytes was evaluated in some of the same samples. Monocytes were identified based on their scatter characteristics, their bright lin 1 FITC, anti-HLA-DR PerCP and CD11c APC staining. […] Intracellular protein secretion is evaluated as PE mean fluorescence intensity (MFI).

Substance: Lipopolysaccharide [LPS]
- IL-12 expression (intracellular, MFI) (CD11c^+CD123^low DCs): trace levels
- production of any of the tested cytokines (CD11c^−CD123^+ DCs): absence of detectable cytokine production; also recorded: fail to respond
- CD80 change in surface expression (ratio of MFI activated versus control) (CD11c^− DCs): upregulation; also recorded: strongest signal
- CD86 change in surface expression (ratio of MFI activated versus control) (CD11c^− DCs): upregulation
- order of cytokine production (kinetics of the response) (CD11c^+ DCs): TNFα is produced first, followed by IL-1β and IL-6
- time of activation after which CD80 is intensely upregulated (CD11c^+ DCs): about 4 hours
- cytokine expression of monocytes compared with CD11c+ DCs (PE MFI) (monocytes): higher levels; also recorded: much more potently
